Measurements taken from patent publication US20210369681A1, “Identification of PPM1D mutations as a novel biomarker for NAMPTi sensitivity” (YALE UNIVERSITY, priority 2018, published 2021).

The compounds below were run on parental and PPM1Dtrnc. immortalized human astrocytes (assay: not given). Conditions: not given.
Format: cell-based
Protocol: (§1) In vitro cellular viability assessments of immortalized human astrocytes, MCF7, and U2OS cell lines were made using a previously described, high-content, microscopy platform developed by our group. In brief, cells were plated in a 96-well plate at a density of 2000 cells/well, and incubated overnight. Drug treatment or vehicle (0.5% DMSO) control was administered, and cells were incubated for 72-96 hours as indicated. Plates were then washed with PBS and fixed with ice-cold 70% ethanol for 2 hours at 4° C. […] Cells were imaged using a Cytation3 imager (BioTek), and images were stitched and analyzed as described above. Viability assessments were made comparing drug treated to vehicle treated conditions. SU-DIPG and HSJD-DIPG-007 spheroid viability was assessed using CytoTox-Glo (Promega), according to the manufacturer's protocols. Spheroids were treated with FK866 for 120 hours before analysis using this method. IC50 calculations were made using GraphPad Prism, by fitting data to an [inhibitor] vs response−variable slope four parameter nonlinear regression (as depicted in the representative figures). siRNA Transfection and Viability Analysis Individual NAPRT targeting siRNAs were ordered from Dharmacon Inc. (Horizon Discovery), with target sequences listed in Table 1. The panel of siRNAs used for synthetic lethal viability screening was hand-selected and ordered from Dharmacon Inc. and were provided in ON-TARGET plus mixtures, each containing up to four unique siRNAs per gene. 2×10^5 astrocytes were reverse-transfected with different siRNAs (200 nM final concentration), using Lipofectamine RNAiMAX (Invitrogen), according to manufacturer's protocols. For individual siRNAs, cells were incubated for 72 hours, pelleted, and lyzed for immunoblotting. For the siRNA screen, cells were incubated for 24 hours and split to different condition plates, where they were incubated for an additional 24 hours. Cells were then treated with the described doses of FK866, and viability was assessed after 72 hours of drug treatment, using the image-based pipeline described above. Viability measurements were made for each siRNA, and normalized to FK866-untreated conditions.
Given the role of PPM1D in DDR pathways, we performed a small molecule synthetic lethal screen with a panel of inhibitors against key DNA repair and metabolic proteins, using methodology described previously by our group.

Row | Compound | IC50 ratio (Parental/PPM1Dtrnc.)
1 | O=P1(N(CCCl)CCCl)NCCCO1 (stereo not shown) [Cyclophosphamide] | 0.90

Same assay, conditions: ratio of IC50 in parental astrocytes to IC50 in PPM1Dtrnc. astrocytes; viability

Row | Compound | IC50 ratio (Parental/PPM1Dtrnc.)
2 | Cn1c(CCCC(=O)O)nc2cc(N(CCCl)CCCl)ccc21 [Bendamustine] | 1.07
3 | Cn1c(=O)n(-c2ccc(C(C)(C)C#N)cc2)c2c3cc(-c4cnc5ccccc5c4)ccc3ncc21 [BEZ-235] | 1.01
4 | CN(C)CCCNC(=O)c1ccc(-c2cc(O)c3ncccc3c2)cc1 [MLM324] | 1.02
5 | CCN1CCN(CC(=O)Nc2ccc(-c3cccc4c(=O)cc(N5CCOCC5)oc34)c3sc4ccccc4c23)CC1 [KU 0060648] | 0.69
6 | Cn1ncnc1[C@H]1c2n[nH]c(=O)c3cc(F)cc(c23)N[C@@H]1c1ccc(F)cc1 [BMN673] | 0.99
7 | O=C(c1cc(Cc2n[nH]c(=O)c3ccccc23)ccc1F)N1CCN(C(=O)C2CC2)CC1 [Olaparib] | 1.32
8 | CO[C@@]12[C@H](COC(N)=O)C3=C(C(=O)C(C)=C(N)C3=O)N1C[C@@H]1N[C@@H]12 [MMC] | 1.08
9 | O=NN(CCCl)C(=O)NC1CCCCC1 [Lomustine] | 1.10
10 | Cc1cc([C@@H](C)Nc2ccccc2C(=O)O)c2nc(N3CCOCC3)cc(=O)n2c1 [AZD6482] | 1.00
11 | CC[C@@]1(O)C(=O)OCc2c1cc1n(c2=O)Cc2cc3c(CN(C)C)c(O)ccc3nc2-1 [Topotecan] | 0.99
12 | NC(=O)Nc1cc(-c2cccc(F)c2)sc1C(=O)N[C@H]1CCCNC1 [AZD7762] | 0.77
13 | CCc1c2c(nc3ccc(OC(=O)N4CCC(N5CCCCC5)CC4)cc13)-c1cc3c(c(=O)n1C2)COC(=O)[C@]3(O)CC [Irinotecan] | 1.01
14 | O=c1cc(N2CCOCC2)oc2c(-c3cccc4c3sc3ccccc34)cccc12 [NU-7441] | 1.26
15 | Cc1ccc([N+](=O)[O-])cc1S(=O)(=O)N(C)/N=C/c1cnc2ccc(Br)cn12 [PIK 75] | 0.97
16 | C[C@@]1(CO)[C@H](O)CC[C@@]2(C)[C@H]1CC[C@H]1C[C@@H]3C[C@@]12CC[C@]3(O)CO [Aphidicolin] | 1.75
17 | CNc1cc(-c2cccc(Cl)c2Cl)nc(N)n1 [TH287] | 1.52
18 | CNCc1ccc(-c2cc(-c3nc(-c4ccc(S(=O)(=O)C(C)C)cc4)cnc3N)on2)cc1 [VE822] | 0.93
19 | COS(C)(=O)=O [MMS] | 1.28
20 | O=c1cc(-c2cccc3c2Sc2ccccc2S3)oc(N2CCOCC2)c1 [KU-55933] | 1.18
21 | OCc1ccc(-c2ccc(-c3ccc(CO)s3)o2)s1 [RITA] | 1.27
22 | NS(=O)(=O)OC[C@@H]1C[C@@H](n2ccc3c(N[C@H]4CCc5ccccc54)ncnc32)C[C@@H]1O [MLN4924] | 0.92
23 | O=C(O)c1ccc(CN2CCC(CN[C@@H]3C[C@H]3c3ccccc3)CC2)cc1 [G5K2879552] | 1.00
24 | C[C@@H](CN1CC(=O)NC(=O)C1)N1CC(=O)NC(=O)C1 [Dexrazoxane] | 1.17
25 | C/C(=N\NC(=O)c1cccc(S(=O)(=O)N2CCOCC2)c1)c1cc(Cl)ccc1O [SP2509] | 1.36
26 | CC(N[C@H]1C[C@@H]1c1ccccc1)c1ccc2c(c1)OCCO2 (stereo partly shown) [LSD1-C76] | 0.98
27 | C=CCn1c(=O)c2cnc(Nc3ccc(N4CCN(C)CC4)cc3)nc2n1-c1cccc(C(C)(C)O)n1 [MK-1775] | 0.63
28 | Cn1nnc2c(C(N)=O)ncn2c1=O [TMZ] | 1.37
29 | CCN1CCN(C(=O)Cc2ccc(Nc3ncc(F)c(Nc4ccc(C(=O)Nc5ccccc5Cl)cc4)n3)cc2)CC1 [TC-S 7010] | 0.78
30 | Cn1ncc2c(N3CCOCC3)nc(-c3cccc(O)c3)nc21 [ETP 45658] | 1.51

These compounds were tested on PPM1Dtrnc. astrocytes (assay: not given). Conditions: not given.
Protocol: PPM1D^trnc. astrocytes were treated with 50 µg/mL cycloheximide or 1 μM MG132 (both Sigma) for the indicated amount of time. Cells were then washed, pelleted, and lyzed for subsequent immunoblotting approaches, as described above. Quantification of immunoblot intensity was calculated using ImageJ software, and consisted of multiple (n=3) blots. Irradiation of cells was performed using an X-RAD KV irradiator (Precision X-ray), and treatment consisted of an unfractionated, 10 Gy dose. PPM1D inhibitor treatment with GSK2830371 (Selleckchem), consisted of 50 nM treatment, 24 hours prior to IR. FK866 (Selleckchem), GPP78 (Tocris Bioscience), STF118804 (Tocris Bioscience), STF31 (Tocris Bioscience), 5-azacytidine (Selleckchem), and Decitabine (Selleckchem) were dissolved in DMSO and used for treatment as indicated.
as §1

Row | Compound | Effect on the cytotoxicity of FK866
31 | NC(=O)c1ccc[n+]([C@@H]2O[C@H](CO)[C@@H](O)[C@H]2O)c1 [NR, nicotinamide riboside] | completely mitigated

Same assay, conditions: 72 hr treatment; structurally distinct NAMPT inhibitors

Row | Compound | NAMPT inhibitor sensitivity of PPM1D mutant astrocytes
32 | O=C(CCCCCCCn1cc(-c2cccnc2)nn1)Nc1ccccc1-c1ccccc1 [GPP78] | confirmed
33 | CC(C)(C)c1ccc(S(=O)(=O)NCc2ccc(C(=O)Nc3cccnc3)cc2)cc1 [STF31] | confirmed
34 | Cc1ccc(S(=O)(=O)Cc2nc(-c3ccc(C(=O)NCc4cccnc4)cc3)oc2C)cc1 [STF118804] | confirmed

Same assay, conditions: PPM1Dtrnc. cells; 72 hr concurrent treatment with FK866

Row | Compound | Effect on the cytotoxicity of FK866
35 | NC(=O)c1cccnc1 [NAM, nicotinamide] | strongly antagonized

What follows are compounds tested on PPM1D (γH2AX foci in parental and PPM1Dtrnc. astrocytes) (assay: γH2AX foci formation after ionizing radiation). Conditions: 10 Gy IR; 50 nM inhibitor 24 hours prior to IR.
Format: cell-based, human
Protocol: Astrocyte cell lines were seeded and incubated overnight, before radiation. Plates were then collected at indicated time points, fixed, permeabilized/blocked, and stained with primary and secondary antibodies for fluorescent imaging. […] Cells were subsequently washed in 1×PBS, followed by a joint permeabilization and blocking step in incubation buffer (5% BSA and 0.5% TritonX100, in PBS) for 1 hour. Primary antibody raised against γH2AX […] (Millipore 05-636) was added at a dilution of 1:1000 in incubation buffer, and incubated overnight at 4° C. Plates were washed, followed by a 1 hour RT incubation with alexafluor-conjugated secondary antibodies (ThermoFisher A21425 or A11029, 1:10,000) and a nuclear dye, […] Hoechst 33342 (Sigma), in secondary buffer (0.5% TritonX100, in PBS). Plates were again washed, and imaged in PBS using the Cytation3 imaging system (BioTek). Images were stitched using Gen5 v2.09 software (BioTek), and both foci and cell numbers were counted using CellProfiler image processing software.

Row | Compound | Differences in γH2AX foci between parental and PPM1Dtrnc. astrocytes after IR
36 | Cc1ncc(Cl)cc1NCc1ccc(C(=O)N[C@@H](CC2CCCC2)C(=O)NC2CC2)s1 [GSK2830371] | abolished

What follows are compounds tested on NAD and NADP levels in WT and PPM1Dtrnc. astrocytes (assay: NAD / NADP quantification in astrocytes). Conditions: PPM1Dtrnc. astrocytes; exogenous NR (50 μM, 24 hrs).
Format: cell-based, human
Protocol: The NAD metabolome was quantitatively analyzed using LC-MS/MS, using two separations on Hypercarb and 13C metabolite standards. Subsequent NAD level analyses were performed using a NAD/NADH Quantification kit (Sigma), as per the manufacturer's specifications. Me/hME-DIP, Bisulfite Conversion, and Global 5-hmC Detection Genomic DNA was purified using the Wizard Genomic DNA purification kit (Promega), and subsequently immunoprecipitated or bisulfite-converted. […] Immunoprecipitated DNA was extracted with phenol/chloroform and analyzed using quantitative PCR (qPCR), as described below. Bisulfite conversion was performed via EpiMark Bisulfite Conversion kit (NEB). Modified DNA was then amplified using EpiMark Hot Start Taq DNA polymerase (NEB), with primers listed in Table 1, and purified with a PCR purification kit (Qiagen). Methylation was then assessed through Sanger-sequencing of the NAPRT promoter. Global 5-hydroxymethylcytosine levels were assessed via the Global 5-hmC quantification kit (Active Motif), according to manufacturer's protocols. Quantitative PCR (qPCR) mRNA transcripts were purified from cells using a RNAeasy kit (Qiagen) and subsequently reverse transcribed using a High Capacity cDNA reverse transcription kit (Applied Biosystems). PPM1D and NAPRT gene expression levels were assessed through qPCR with TaqMan fluorescent probes (all from Applied Biosystems): PPM1D (4331182), NAPRT (4351372), and Actin (4333762F), according to manufacturer's protocol. Expression level fold change was calculated via ΔΔCt comparison, using Actin as a reference gene. The NAPRT promoter region was quantitated via qPCR using Fast Start Universal SYBR Green Master with ROX (Roche), and primers listed in Table 1. All qPCR reactions were run on a StepOnePlus Real Time PCR system (Applied Biosystems).

Row | Compound | Basal NAD levels
37 | NC(=O)c1ccc[n+]([C@@H]2O[C@H](CO)[C@@H](O)[C@H]2O)c1 [NR, nicotinamide riboside] | sufficiently increased
